24 compounds from US12435087B2, “Modulators of DCN-1 and methods of use thereof” (Cellarity, Inc., priority 2023, dated 2025) can be followed below.

The assay concerns the target DCN1 (DCUND1) protein PONY domain (Homo sapiens (Human), UniProt Q96GG9). The assay can be described thus: TR-FRET assay (binding to DCN-1, displacement of FAM-labeled probe).
Source text: (§1) The TR-FRET assay was designed following the Scott et al. protocol (Scott et al., Nat Chem Biol. 2017 August; 13(8): 850-857. doi:10.1038/nchembio.2386). The recombinant form of the DCN1 (DCUND1) protein PONY domain was produced using an E. coli expression system at Viva Biotech (China). The DCN1 protein was biotinylated (EZ sulfo-NHS-LC-biotin; Thermofisher) for labeling with streptavidin terbium (Tb) cryptate in the reaction. The probe was changed to a non-covalent DCN1 inhibitor labeled with carboxyfluorescein (FAM; Zhou et al., Nat Commun. 2017; 8: 1150. doi: 10.1038/s41467-017-01243-7). Buffer conditions were modified to enhance protein stability by exchanging Tween20 for TritonX and increasing NaCl to 200 mM. The compounds were screened against 5 nM DCN1 and 20 nM FAM-probe or 0.31 nM DCN1 and 900 nM total probe (100 nM FAM-labeled plus 800 nM unlabeled). The TR-FRET ratio between Tb-DCN1 and the FAM-labeled probe was measured in a 384-well opti-plate (Perkin Elmer) using a plate reader (BMG) at 1, 5, and 24 hrs after treatment with compound (final DMSO concentration of 0.1%). The ratio was normalized to the high (DCN1 and FAM-probe) and low (DCN1 and no probe) controls for a readout of % activity (=100*(x−low)/(high−low).
A TR-FRET assay was performed to evaluate the ability of the compounds to bind the DCN-1 protein.
as §1, with “850-857. Doi: 10.1038/nchembio.2386).” for “850-857. doi:10.1038/nchembio.2386).”, “the DCNI” for “the DCN1”, “1150. Doi:” for “1150. doi:”, “0.1%).” for “0.1%). The ratio was normalized to the high (DCN1 and FAM-probe) and low (DCN1 and no probe) controls for a readout of % activity (=100*(x−low)/(high−low).”

Setting [1] is: 24 hr after treatment with compound, read-out: TR FRET IC50 24 hr.
Setting [2] is: TR FRET IC50 1 hr (nM), 1 hr after treatment with compound.
Setting [3] is: read-out: TR FRET IC50 1 hr, 1 hr after treatment with compound.

Like-named read-outs stand apart in the source and are kept apart here. Some results are limits rather than exact numbers.

Sequence of DCN1 (DCUND1) protein PONY domain (Q96GG9 60-248): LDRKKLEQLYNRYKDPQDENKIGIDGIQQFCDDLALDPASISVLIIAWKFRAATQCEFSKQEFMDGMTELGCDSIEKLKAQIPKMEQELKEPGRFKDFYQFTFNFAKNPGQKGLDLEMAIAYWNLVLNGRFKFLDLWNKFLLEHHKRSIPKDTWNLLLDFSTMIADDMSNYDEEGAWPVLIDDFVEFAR

For `CCN1C(=O)[C@H](NC(=O)c2cccc(C(F)(F)F)c2)[C@@H](c2ccccc2NC(C)=O)c2cnn(-c3ccccc3)c21` (racemic) [Compound I-26, rac-N-((4R,5S)-4-(2-acetamidophenyl)-7-ethyl-6-oxo-1-phenyl-4,5,6,7-tetrahydro-1H-pyrazolo[3,4-b]pyridin-5-yl)-3-(trifluoromethyl)benzamide], the IC50 (usually the concentration at which inhibition is half-maximal) is over 3000 nM under setting [1] and over 3000 nM under setting [2].
`CCN1C(=O)[C@H](NC(=O)c2cccc(C(F)(F)F)c2)[C@@H](c2ccccc2NC#N)c2cnn(-c3ccccc3)c21` (racemic) [Compound I-122, ˜{N}—[˜{rac}-(4˜{S},5˜{R})-4-[2-(cyanoamino)phenyl]-7-ethyl-6-oxo-1-phenyl-4,5-dihydropyrazolo[3,4-b]pyridin-5-yl]-3-(trifluoromethyl)benzamide]: the IC50 is, setting by setting: under setting [1], 1000 to 3000 nM; under setting [2], 1000 to 3000 nM.
For `CCN1C(=O)[C@H](NC(=O)c2cccc(C(F)(F)F)c2)[C@@H](c2cccc(N(C)C(=O)C3=CCC3)c2)c2cnn(-c3ccccc3)c21` [Compound I-91], the half-inhibitory concentration (IC50) was in the range of 1000 to 3000 nM under setting [1] and 1000 to 3000 nM under setting [2].
Consider `C=C(CN1CC2CC1CO2)C(=O)NCc1cccc([C@@H]2c3cnn(-c4ccccc4)c3N(CC)C(=O)[C@H]2NC(=O)c2cccc(C(F)(F)F)c2)c1` (stereo partly drawn) [Compound I-7], for which the IC50 is at most 200 nM under setting [1] and at most 200 nM under setting [3].
For the compound `CCC(=O)NCc1cccc([C@@H]2c3cnn(-c4ccccc4)c3N(CC)C(=O)[C@H]2NC(=O)c2ccn(C(F)(F)F)n2)c1` [Compound I-335], the IC50 by setting is: under setting [1], 200 to 1000 nM; under setting [2], 1000 to 3000 nM.
The corresponding values for `C/C=C(\CN1CCC1)C(=O)Nc1cccc([C@@H]2c3cnn(-c4ccccc4)c3N(CC)C(=O)[C@H]2NC(=O)c2nccc(C(F)(F)F)n2)c1` [Compound I-367] are at most 200 nM and 1000 to 3000 nM.
`C=C(CN1CCOCC1)C(=O)NCc1cccc([C@@H]2c3cnn(-c4ccccc4)c3N(CC)C(=O)[C@H]2NC(=O)c2ccn(C)n2)c1` [Compound I-338]: the IC50 reads like this: under setting [1], at most 200 nM; under setting [2], 1000 to 3000 nM.
For `C/C=C(\CN(C)C1COC1)C(=O)Nc1cccc([C@@H]2c3cnn(-c4ccccc4)c3N(CC)C(=O)[C@H]2NC(=O)c2nccc(C(F)(F)F)n2)c1` [Compound I-384], the IC50 under setting [1] is at most 200 nM and the half-maximal inhibitory concentration (IC50) under setting [2] lay within 200 to 1000 nM.
As to `C=C(CN1CCC1)C(=O)NCc1cccc([C@@H]2c3c(C)nn(-c4ccccc4)c3N(CC)C(=O)[C@H]2NC(=O)c2cccc(C(F)(F)F)c2)c1` [Compound I-303], the IC50 runs as follows: under setting [1], at most 200 nM; under setting [3], at most 200 nM.
As for `CCN1C(=O)[C@H](NC(=O)c2cccc(C(F)(F)F)c2)[C@@H](c2cccc(N(C)C(=O)/C=C/CN(C)C)c2)c2cnn(-c3ccccc3)c21` (racemic) [Compound I-39], the IC50 by setting is: under setting [1], 1000 to 3000 nM; under setting [2], 1000 to 3000 nM.
On to `C=C(CN1CCN(C2COC2)CC1)C(=O)N[C@H](C)c1cccc([C@@H]2c3cnn(-c4ccccc4)c3N(CC)C(=O)[C@H]2NC(=O)c2nccc(C(F)(F)F)n2)c1` (mixture of isomers) [Compound I-366], for which the 50% inhibitory concentration (IC50) under setting [1] was 1000 to 3000 nM and the IC50 under setting [2] fell in the range of 1000 to 3000 nM.
On to `CCN1C(=O)[C@H](NC(=O)c2cccc(C(F)(F)F)c2)[C@@H](c2ccccc2-n2sccc2=O)c2cnn(-c3ccccc3)c21` (racemic) [Compound I-89, ˜{N}—[˜{rac}-(4˜{S},5˜{R})-7-ethyl-6-oxo-4-[2-(3-oxoisothiazol-2-yl)phenyl]-1-phenyl-4,5-dihydropyrazolo[3,4-b]pyridin-5-yl]-3-(trifluoromethyl)benzamide], for which the half-inhibitory concentration (IC50) under setting [1] was in the range of 1000 to 3000 nM and the IC50 under setting [2] fell in the range of 1000 to 3000 nM.
On to `C=C(CN1CCC(C)(O)C1)C(=O)NCc1cccc([C@@H]2c3cnn(-c4ccccc4)c3N(CC)C(=O)[C@H]2NC(=O)c2cccc(C(F)(F)F)c2)c1` (stereo partly drawn) [Compound I-10, N-((4R,5S)-7-ethyl-4-(3-((2-((3-hydroxy-3-methylpyrrolidin-1-yl)methyl)acrylamido)methyl)phenyl)-6-oxo-1-phenyl-4,5,6,7-tetrahydro-1H-pyrazolo[3,4-b]pyridin-5-yl)-3-(trifluoromethyl)benzamide], for which the IC50 reads like this: under setting [1], at most 200 nM; under setting [3], at most 200 nM.
Turning to `C=C(CN1CCOCC1)C(=O)NCc1cccc([C@@H]2c3cnn(-c4ccccc4)c3N(CC)C(=O)[C@H]2NC(=O)c2ccn(CC)n2)c1` [Compound I-351], the IC50 is, setting by setting: under setting [1], at most 200 nM; under setting [2], 200 to 1000 nM.
As to `C=C(CC(=O)OC)C(=O)Nc1cccc([C@@H]2c3c(C)nn(-c4ccccc4)c3N(CC)C(=O)[C@H]2NC(=O)c2cccc(C(F)(F)F)c2)c1` (racemic) [Compound I-41], the half-maximal inhibitory concentration (IC50) is, setting by setting: under setting [1], 1000 to 3000 nM; under setting [2], 1000 to 3000 nM.
For the compound `C=C(CN1CC2CC(C1)O2)C(=O)NCc1cccc([C@@H]2c3cnn(-c4ccccc4)c3N(CC)C(=O)[C@H]2NC(=O)c2cccc(C(F)(F)F)c2)c1` [Compound I-290], the IC50 under setting [1] was at most 200 nM and the IC50 under setting [3] was at most 200 nM.
Consider `C=C(CN1CC(C)(O)C1)C(=O)NCc1cccc([C@@H]2c3cnn(-c4ccccc4)c3N(CC)C(=O)[C@H]2NC(=O)c2cccc(C(F)(F)F)c2)c1` [Compound I-361], for which the IC50 under setting [1] was at most 200 nM and the IC50 under setting [3] was at most 200 nM.
With `C/C=C(\CN1CCC1)C(=O)NCc1cccc([C@@H]2c3cnn(-c4ccccc4)c3N(CC)C(=O)[C@H]2NC(=O)c2cccc(C(F)(F)F)c2)c1` [Compound I-341], the IC50 runs as follows: under setting [1], at most 200 nM; under setting [2], 200 to 1000 nM.
Take `CCN1C(=O)[C@@H](NC(=O)c2cccc(C(F)(F)F)c2)[C@H](c2ccccc2CNC#N)c2c(C)nn(-c3ccccc3)c21` (racemic) [Compound I-149]: the half-inhibitory concentration (IC50) lay within 200 to 1000 nM under setting [1] and 1000 to 3000 nM under setting [2].
On to `CCN1C(=O)[C@@H](NC(=O)c2nccc(C(F)(F)F)n2)[C@H](c2cccc(CNC(=O)C(COC)CN3CCC(F)(F)C3)c2)c2cnn(-c3ccccc3)c21` (stereo partly drawn) [Compound I-360], for which the IC50 under setting [1] lay in the range of 1000 to 3000 nM and the IC50 under setting [2] was 1000 to 3000 nM.
With `CCN1C(=O)[C@@H](NC(=O)c2cccc(C(F)(F)F)c2)[C@H](c2cccc(CNC(=O)C3=CCCN(C)C3)c2)c2cnn(-c3ccccc3)c21` [Compound I-33], the concentration for half-maximal inhibition (IC50) reads like this: under setting [1], 1000 to 3000 nM; under setting [2], 1000 to 3000 nM.
Take `C=C(CN1CCOCC1)C(=O)Nc1cccc([C@H]2c3c(C)nn(-c4ccccc4)c3N(CCO)C(=O)[C@@H]2NC(=O)c2cccc(C(F)(F)F)c2)c1` (racemic) [Compound I-147, rac-N-((4R,5S)-7-(2-hydroxyethyl)-3-methyl-4-(3-(2-(morpholinomethyl)acrylamido)phenyl)-6-oxo-1-phenyl-4,5,6,7-tetrahydro-1H-pyrazolo[3,4-b]pyridin-5-yl)-3-(trifluoromethyl)benzamide]: the IC50 is at most 200 nM under setting [1] and at most 200 nM under setting [2].
Take `C=C(CN1CCC12COC2)C(=O)N(C)Cc1cccc([C@@H]2c3cnn(-c4ccccc4)c3N(CC)C(=O)[C@H]2NC(=O)c2ccn(C(F)(F)F)n2)c1` [Compound I-371]: the IC50 was 200 to 1000 nM under setting [1] and 1000 to 3000 nM under setting [2].
Consider `CCC(=O)NCc1cccc([C@@H]2c3cnn(-c4ccccc4)c3N(CC)C(=O)[C@H]2NC(=O)c2nccc(C(F)(F)F)n2)c1` [Compound I-358], for which the IC50 fell in the range of 1000 to 3000 nM under setting [1] and 1000 to 3000 nM under setting [2].
